In ChEMBL document CHEMBL1154515, “Gamma-pyrone natural products--a privileged compound class provided by nature” (Bioorg Med Chem, 2009):
In brackets after ≈: the same amount, converted by molar mass. Activity calls are given as the source filed them. The rule behind the calls is not given here.

Legend:
Helicobacter pylori = experiment: Antimicrobial activity against Helicobacter pylori; format: functional
[1] = biological target: T1, Potassium voltage-gated channel subfamily A member 3 (Homo sapiens, UniProt P22001); experiment: Inhibition of voltage-gated Kv1.3 potassium channel expressed in CHO cells by 86Rb efflux experiment; format: cell-based
T1 sequence (P22001 whole entry): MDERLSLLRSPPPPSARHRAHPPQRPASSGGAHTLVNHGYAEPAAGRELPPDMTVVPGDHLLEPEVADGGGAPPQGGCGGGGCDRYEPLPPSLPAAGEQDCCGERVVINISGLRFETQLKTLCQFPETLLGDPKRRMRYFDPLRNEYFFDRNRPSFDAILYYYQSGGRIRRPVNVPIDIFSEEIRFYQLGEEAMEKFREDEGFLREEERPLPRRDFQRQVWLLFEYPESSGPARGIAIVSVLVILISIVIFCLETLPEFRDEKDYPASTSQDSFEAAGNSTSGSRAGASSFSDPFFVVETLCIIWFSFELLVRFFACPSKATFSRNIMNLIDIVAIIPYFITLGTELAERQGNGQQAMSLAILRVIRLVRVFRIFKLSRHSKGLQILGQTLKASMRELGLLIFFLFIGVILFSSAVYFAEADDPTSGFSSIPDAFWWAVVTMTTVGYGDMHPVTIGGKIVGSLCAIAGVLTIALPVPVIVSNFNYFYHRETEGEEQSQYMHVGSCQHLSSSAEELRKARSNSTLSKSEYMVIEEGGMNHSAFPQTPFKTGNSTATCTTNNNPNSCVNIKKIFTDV

T-cell = experiment: Inhibition of Concanavalin A-induced T cell proliferation; format: functional, cell-based
[2] = Inhibition of NADH fumarate reductase
HT-1080 = experiment: Cytotoxicity against human HT1080 cells; format: functional, cell-based
[3] = Depolarization of human T cells by electrophysiological method; format: functional, cell-based; details: T-cell
[4] = biological target: T1, Potassium voltage-gated channel subfamily A member 3; experiment: Antagonist activity at voltage-gated Kv1.3 potassium channel; format: functional
[5] = system: Leptinotarsa decemlineata; experiment: Insecticidal activity against Leptinotarsa decemlineata at 1000 ppm; format: functional, organism-based
[6] = Toxicity in ip dosed rat; format: organism-based; details: in vivo
[7] = system: Leptinotarsa decemlineata; experiment: Insecticidal activity against Leptinotarsa decemlineata; format: functional
B-cell = experiment: Inhibition of LPS-induced B cell proliferation; format: functional, cell-based

Q: For `C/C=C(\C)[C@H](O)[C@H](C)/C=C(C)/C=C/C/C(C)=C/Cc1oc(OC)cc(=O)c1C` [ACTINOPYRONE B], which MIC (Helicobacter pylori) is on record?
A: 0.1 ng/mL (≈ 0.259 nM)

Q: With `C=C1CC[C@@H]2[C@](C)(CC[C@H]3OC(C(C)(C)O)=CC[C@]23C)[C@H]1Cc1c(OC)oc(C)c(C)c1=O` [CANDELALIDE C] as the compound, how does the IC50 [1] read?
A: 2500 nM

Q: With `COc1oc([C@@H]2C[C@@]3(CO2)[C@H](c2ccc([N+](=O)[O-])cc2)[C@]2(C)C=C(C)C=C(C)[C@@H]23)c(C)c(=O)c1C` as the compound, how does the IC50 (T-cell) read?
A: 200 nM

Q: For `COc1oc([C@H]2C/C(=C/C(C)=C/C(C)=C/C(C)=C/c3ccc([N+](=O)[O-])cc3)CO2)c(C)c(=O)c1C` [SPECTINABILIN], which IC50 [2] is on record?
A: 15 nM

Q: With `COc1oc([C@H]2C/C(=C/C(C)=C\c3ccc([N+](=O)[O-])cc3)CO2)c(C)c(=O)c1C` [ALLOAUREOTHIN] as the compound, how does the IC50 (HT-1080) read?
A: 30 µM

Q: With `C=C1CC[C@@H]2[C@](C)(CC[C@H]3OC(C(C)(C)O)=C(O)C[C@]23C)[C@@H]1Cc1c(OC)oc(C)c(C)c1=O` [CANDELALIDE B] as the compound, how does the IC50 [1] read?
A: 1200 nM

Q: Which EC50 [3] does the source give for `C=C1CC[C@H]2[C@](C)(CCC=C(C)C)[C@@H](OC(C)=O)CC[C@]2(C)[C@@H]1Cc1c(OC)oc(C)c(C)c1=O` [NALANTHALIDE] here?
A: 500 nM

Q: And the IC50 [4]?
A: 3.9 µM

Q: Which Activity [5] does the source give for `C=C1CC[C@@H]2[C@](C)(CC[C@H](O)[C@@]2(C)CCC=C(C)C)[C@@H]1Cc1c(OC)oc(C)c(C)c1=O` here?
A: inactive

Q: For `C=C1CC[C@@H]2[C@@](C)(CCC(C)(C)O)[C@@H](O)CC[C@@]2(C)[C@H]1Cc1c(OC)oc(C)c(C(=O)OC)c1=O` [COLLECTOTRICHIN A], which LD50 [6] is on record?
A: 16 mg/kg

Q: With `C=C1CC[C@@H]2[C@](C)(CC[C@H]3OC=CC[C@]23C)[C@@H]1Cc1c(OC)oc(C)c(C)c1=O` [CANDELALIDE A] as the compound, how does the IC50 [1] read?
A: 3700 nM

Q: For `C=C1CC[C@H]2[C@](C)(CCC=C(C)C)[C@@H](OC(=O)[C@H](OC)[C@@H](C)CC)CC[C@]2(C)[C@@H]1Cc1c(OC)oc(C)c(C)c1=O` [VIRIDOXIN A], which LC50 [7] is on record?
A: 39.7 µg/mL (≈ 69600 nM)

Q: With `C/C=C(\C)[C@H](O)[C@H](C)/C=C(C)/C=C/C/C(C)=C/Cc1oc(OC)c(C)c(=O)c1C` [ACTINOPYRONE A] as the compound, how does the MIC (Helicobacter pylori) read?
A: 0.1 ng/mL (≈ 0.25 nM)

Q: With `COc1oc([C@H]2C[C@@]3(CO2)[C@H](c2ccc([N+](=O)[O-])cc2)[C@]2(C)C=C(C)C=C(C)[C@@H]23)c(C)c(=O)c1C` as the compound, how does the IC50 (B-cell) read?
A: 800 nM

Q: With `C/C=C(\C)[C@H](O)[C@H](C)/C=C(C)/C=C/C/C(C)=C/Cc1oc(OC)c(CC)c(=O)c1C` [ACTINOPYRONE C] as the compound, how does the MIC (Helicobacter pylori) read?
A: 0.1 ng/mL (≈ 0.241 nM)

Q: Which LC50 [7] does the source give for `C=C1CC[C@H]2[C@](C)(CCC=C(C)C)[C@@H](OC(=O)[C@H](O)[C@@H](C)CC)CC[C@]2(C)[C@@H]1Cc1c(OC)oc(C)c(C)c1=O` [VIRIDOXIN B] here?
A: 50.7 µg/mL (≈ 91100 nM)
